88 molecules from a melting point compilation (Tetko et al.; mined from patent text by program, amines drawn as free bases though some values may be those of a salt) can be followed below.

`CCC(=O)n1nc(-c2ccc(Cl)cc2)nc1C` showed a melting point of 108 to 109 °C.
For `COc1ccc(C(=O)Nc2cccnc2)cc1NCc1cccs1`, the melting point lay in the range of 154 to 155 °C.
In turn, `CCNC(=O)n1nc(Oc2c(Cl)cc(C(F)(F)F)cc2Cl)cc1CC(=O)OCC` showed a melting point of 100 to 102 °C.
As for `CCOC(=S)SCCC(=O)N1CCC[C@H]1C(=O)O`, the melting point lay in the range of 94 to 95 °C.
As for `CON=C1CN(c2cc3c(cc2F)c(=O)c(C(=O)O)cn3C2CC2)CC12CN(C(=O)OC(C)(C)C)C2`, the melting point is 255 to 256 °C.
In turn, `CCc1nc2c(cnn2CC)c(NC2CCOCC2)c1CNC(=O)c1cc(C)cc(C(=O)O)c1` showed a melting point of 236 to 239 °C.
Turning to `COc1cc(Nc2c(C#N)cnc3cc(-c4cscc4CN4CCOCC4)ccc23)c(Cl)cc1Cl`, the melting point is 188 to 190 °C.
For `Cc1cccc(Oc2cccc(Oc3ccc4c(c3)OCO4)c2C(=O)O)c1`, the melting point lay within 169 to 172 °C.
The value for `CCOC(=O)C(=O)Oc1cccc(-c2cn3c(n2)sc2ccccc23)c1` was 120 to 121 °C; that for `Cc1noc(NS(=O)(=O)c2ccccc2C#N)c1Br` was 152 to 155 °C.
Molecule `COc1ccc2c(c1)CCC(CN1CCC(O)(c3ccccc3)CC1)C2=O` (stereo not drawn) showed a melting point of 163 to 165 °C.
Turning to `O=C1C=CC(=O)N1c1ccc(S(=O)(=O)C(I)I)cc1`, the melting point was found to be 217 °C.
As for `CCCCCCCCCCCCCCCc1cc(=O)c2c(O)cc(O)cc2o1`, the melting point came out at 108 °C.
The result for `O=c1[nH]c2ccc(C#CCCN3CCC(Cc4ccccc4)CC3)cc2[nH]1` reads 221 to 223 °C; that for `CC(C)(C)c1cc(C#N)c(O)cn1`, 185 to 195 °C; that for `COc1ccc2c(c1)S(=O)(=O)c1nccnc1N2`, 293 to 294 °C.
Turning to `CCOC(=O)c1nn(-c2ccc(Cl)cc2Cl)c(-c2cccs2)c1C`, the melting point was in the range of 121 to 122 °C.
The result for `O=S1(=O)NCN(CCF)c2ccc(I)cc21` reads 156 to 158 °C.
The result for `CNC(=O)c1cc(=O)c2ccccc2o1` reads 224 to 225 °C; that for `CCCCn1c2ccccc2c2cc(C(=O)O)ncc21`, 182 to 184 °C.
`CC(C(=O)O)c1cc([N+](=O)[O-])ccc1F` (stereo not drawn): the melting point fell in the range of 88 to 90 °C.
In turn, `C[C@@H]1Cc2cc(N3C[C@H](C(N)=O)OC3=O)ccc2N1C=O` yielded a melting point of 228 to 230 °C.
`COC(=O)c1ccc2c(c1)C(SCCO)c1ccccc1CO2` (stereo not drawn) gave a melting point of 128 to 130 °C.
On to `Fc1cc(CC2(Cc3ccnc(F)c3)c3cc(I)ccc3-c3ncccc32)ccn1`, for which the melting point fell in the range of 158 to 161 °C.
`COc1ccc(-c2cc(=O)n(Cc3ccccc3)nc2-c2ccc(OC)c(F)c2)cc1F`: the melting point was 114 to 115 °C.
`OCC1OC(n2cnc3c2ncn2ccnc32)CC1O` (stereo not drawn) displayed a melting point of 138 to 141 °C.
Molecule `CCN(CC)c1cc2c(cc1C)Nc1c(cc(NC(=O)c3ccc(OC)cc3)c3ncn(-c4ccc(OC)cc4)c13)O2` gave a melting point of 189 to 192 °C.
`COc1cccc2c1CCc1c-2nc2ccccc2c1N` came in with a melting point of 126 to 129 °C.
As to `O=C(NC1CCC(OC(=O)N2CCC3(CCCC3)CC2)CC1)C1CCN(C(=O)Oc2ccc(Oc3ccccc3)cc2)CC1` (stereo not drawn), the melting point was in the range of 230 to 231 °C.
In turn, `C[C@H]1C[C@@](O)(c2cccc(S(=O)(=O)c3ccc4c(c3)CCC(=O)N4)c2)CCO1` yielded a melting point of 178 to 180 °C.
The molecule `CCN(CC)S(=O)(=O)c1ccccc1S(=O)(=O)NC(=O)Nc1nc(C)cc(OC)n1` gave a melting point of 170 to 172 °C.
As to `Cc1nnc(-c2ccc3occ(-c4ccc(C(=O)N5CCOCC5)c(F)c4)c3c2)o1`, the melting point fell in the range of 167 to 168 °C.
`Clc1ccc(-c2[nH]nc(C3=CCN4CCC[C@H]4C3)c2-c2ccncc2)cc1` gave a melting point of 211 to 212 °C.
`COc1cc(I)cc(C(N)=O)c1` had a melting point of 175 to 176 °C.
As to `O=c1[nH]c2cc(Cl)ccc2c(O)c1-c1ccc(/C=C\c2ccccc2)cc1`, the melting point fell in the range of 284 to 286 °C.
In the case of `O=CN(O)C(CS(=O)(=O)c1ccc(-c2ccc(C(F)(F)F)cc2)cc1)c1cccnc1` (stereo not drawn), the melting point was 186 to 189 °C.
The result for `CCCCCCCOc1ccc(N=Nc2ccc([N+](=O)[O-])cc2)cc1` reads 82.3 to 83.2 °C; that for `Cc1cc(C)n(O)c(=O)c1Cc1ccccc1`, 148 °C; that for `C[C@H](NC(=O)c1ccccc1)C(=O)N[C@@H](C)C(=O)Nc1ccccc1`, 245 to 248 °C.
The molecule `C[C@H](NC(=O)C1(C)Oc2ccc([N+](=O)[O-])cc2NC1=O)C(=O)N[C@H](CCC(=O)O)C(N)=O` (stereo partly drawn) registered a melting point of 142 to 146 °C.
In the case of `N#Cc1nn(-c2c(Cl)cc(C(F)(F)F)cc2Cl)cc1-c1ccccc1C(F)(F)F`, the melting point is 142 to 143 °C.
The value for `CC(O)c1cccc(-c2ccc3nc(-c4ccc(Cl)cc4)cn3c2)c1F` (stereo not drawn) was 193 to 195 °C.
`O=C(NCCN1CCc2ccc3c(c21)CCO3)C1CC1` returned a melting point of 147 to 149 °C.
With `COC(=O)c1ccc2c(nc(C)n2Cc2ccccc2)c1C(=O)OC`, the melting point was 192 to 195 °C.
The result for `CN(C)N(C)C(=O)NC1c2ccccc2Oc2ccccc21` reads 141 to 142 °C.
`Cc1nc2c(n1Cc1ccccc1)CCCC2=O`: the melting point is 115 °C.
For the molecule `CNC(=O)C1=CC2(CCSCC2)Oc2ccc([N+](=O)[O-])cc21`, the melting point lay in the range of 208 to 209 °C.
Consider `O=C(O)CCC(O)c1ccc(CCNS(=O)(=O)c2ccc(Cl)cc2)cc1` (stereo not drawn), for which the melting point is 191 °C.
In turn, `ClC(Cl)=CCOc1cc(Cl)c(OCc2cccc(Cl)c2)c(Cl)c1` yielded a melting point of 87 °C.
Take `OC1(c2ccc3c(c2)OCO3)CCN(CC=Cc2ccccc2)CC1`: the melting point was 114 to 115 °C.
`CCNC(CC)c1ccc(Cl)c2nc3n(c12)CCCN3c1ccc(Cl)cc1Cl` (stereo not drawn) yielded a melting point of 124 to 127 °C.
The result for `O=Cc1ccc2cc3c(cc2c1)sc1ccccc13` reads 182 to 185 °C; that for `COc1ccccc1-c1ccc2cnc(Nc3ccc4c(c3)NC(=O)CC4)nn12`, 310 to 313 °C; that for `CC(=O)N1C(=O)C=CC1=O`, 58 °C.
The result for `COC(/C=C/c1cccc(Cl)c1)=N/c1ccc(C(O)c2cncn2Cc2ccc(C#N)cc2)cc1` (stereo not drawn) reads 192 °C.
The value for `CC(=O)C(=[N+]=[N-])C(=O)NCCO` was 69 to 70 °C.
In turn, `CC1Oc2ccc(C3=NNC(=O)CC3)cc2NC1=O` (stereo not drawn) returned a melting point of 275 to 276 °C.
On to `CCc1cccc2c(C(=O)OC)cnnc12`, for which the melting point was in the range of 59 to 60 °C.
On to `CCOC(=O)C1=C(c2ccc(-n3c(C)nc4cnccc43)cc2)NC(OC)=NC1c1ccccc1Cl` (stereo not drawn), for which the melting point fell in the range of 228 to 232 °C.
The result for `CCCCNc1nc(N)nc2c1ncn2C1CC(N=[N+]=[N-])C(CO)O1` (stereo not drawn) reads 44 to 47 °C; that for `CCOC(=O)C1=C(C)NC(=S)N(C(=O)OCC)C1c1ccccc1C` (stereo not drawn), 112 to 114 °C.
For the molecule `CC(=O)Oc1cc(N2C(=O)C=CC2=O)ccc1C(=O)O`, the melting point is 110 to 119 °C.
For the molecule `CC(C)n1nc(-c2sc(C(N)=O)nc2-c2cccc(Cl)c2)ccc1=O`, the melting point is 232 to 234 °C.
In the case of `CN(Cc1ccc(NC(=O)C2=Cc3cc(-c4ccc(OC(F)(F)F)cc4)ccc3S(=O)(=O)CC2)cc1)C1CCOCC1`, the melting point lay within 261 to 263 °C.
The value for `Cc1ccc2c(-c3cnc4[nH]cc(C(=O)N[C@H](C)C(=O)N5CC(C#N)C5)c4n3)nn(C)c2c1` was 260 to 275 °C.
The molecule `COc1cc(/C=C/C(=O)/C=C/C(=O)O)cc(OC)c1OC` had a melting point of 152 to 154 °C.
Consider `COC1C(OC(=O)c2ccc([N+](=O)[O-])cc2)C=C(C)C(=O)CC1(C)C` (stereo not drawn), for which the melting point was 136 to 138 °C.
For the molecule `O=C(O)c1cc(S(=O)C(F)(F)F)c(Cl)cc1Cl` (stereo not drawn), the melting point fell in the range of 176 to 178 °C.
The molecule `CC(C)c1nc(N)oc1-c1ccc(F)c2ccccc12` showed a melting point of 141 °C.
The result for `Oc1cccc(C=Cc2nc(-c3ccccc3)c(-c3ccccc3)o2)c1` reads 201 to 203 °C; that for `O=S(=O)(c1ccc(Oc2ccccc2)cc1)c1cccc(S(=O)(=O)c2ccc(Oc3ccccc3)cc2)c1`, 70 to 75 °C.
The result for `CC(=O)Nc1ccc2c3c(oc2c1)CC(C(=O)O)CC3` (stereo not drawn) reads 229 to 230 °C; that for `CCc1nc2c(cnn2CC)c(NC2CCOCC2)c1CNC(=O)c1cccc(C(=O)NCc2ccc(Cl)c(-c3cccc(CN4CCNCC4)c3)c2)c1`, 127 to 130 °C; that for `CCOC(=O)C1=C(C)NC(C)=C(C(=O)OCCN2CCN(C(c3ccc(C)cc3)c3ccc(C)cc3)CC2)C1c1cccc(C(F)(F)F)c1` (stereo not drawn), 74 to 77 °C.
In the case of `CC(=O)Nc1cnn2c1-c1ccccc1N(C(C)=O)C2C` (stereo not drawn), the melting point was 218 to 220 °C.
The result for `O=C(Nc1nccs1)c1c(C(F)(F)F)nc2c(C(F)(F)F)cccc2c1O` reads 258 °C; that for `COc1cc(Cl)c([N+](=O)[O-])cc1OC`, 103 to 105 °C; that for `CC(C)(C)c1csc(-c2cc3cc(Cc4nc(C(=O)O)cs4)ccc3o2)n1`, 227 to 230 °C.
With `Cc1ccc(-n2nc(C(C)(C)C)cc2NC(=O)Nc2ccc(OCCN3CCOCC3)c3ccccc23)cc1`, the melting point lay within 142 to 143 °C.
Consider `COC(=O)c1cncn1C1c2ccccc2C(=O)CC1(C)C` (stereo not drawn), for which the melting point was in the range of 93 to 95 °C.
`NC(=O)CCc1cnoc1-c1ccccc1`: the melting point lay within 151 to 152 °C.
Regarding `Cc1cc(I)sc1COCP(=O)(OC(C)C)OC(C)C`, the melting point lay in the range of 39 to 40 °C.
Regarding `CNC(CNC(=O)c1nc(Cl)c(N)nc1N)CC(=O)NCCN` (stereo not drawn), the melting point was in the range of 106 to 109 °C.
Molecule `C=CC(=O)OCCOC(=O)Nc1ccccc1` displayed a melting point of 66 to 68 °C.
For `CN(C)C1(Cc2ccccc2)CC=C(c2[nH]c3ccccc3c2CCc2ccncc2)CC1` (stereo not drawn), the melting point is 154 to 157 °C.
The value for `COc1cc(Cl)c([N+](=O)[O-])cc1C(=O)O` was 184 to 185 °C.
Molecule `Cc1ccc(NC(=N)Nc2ncccc2OCc2c(F)cccc2Cl)cc1` yielded a melting point of 136 to 138 °C.
Molecule `COc1ccc2c(ccn2Cc2ccccc2Br)n1` had a melting point of 86 to 87 °C.

As a reminder, the melting point is the temperature, or range, at which the solid turns liquid.
